Target: T1, Humane Glykogenphosphorylase a (Homo sapiens, UniProt P06737)
T1 sequence (P06737 1-847): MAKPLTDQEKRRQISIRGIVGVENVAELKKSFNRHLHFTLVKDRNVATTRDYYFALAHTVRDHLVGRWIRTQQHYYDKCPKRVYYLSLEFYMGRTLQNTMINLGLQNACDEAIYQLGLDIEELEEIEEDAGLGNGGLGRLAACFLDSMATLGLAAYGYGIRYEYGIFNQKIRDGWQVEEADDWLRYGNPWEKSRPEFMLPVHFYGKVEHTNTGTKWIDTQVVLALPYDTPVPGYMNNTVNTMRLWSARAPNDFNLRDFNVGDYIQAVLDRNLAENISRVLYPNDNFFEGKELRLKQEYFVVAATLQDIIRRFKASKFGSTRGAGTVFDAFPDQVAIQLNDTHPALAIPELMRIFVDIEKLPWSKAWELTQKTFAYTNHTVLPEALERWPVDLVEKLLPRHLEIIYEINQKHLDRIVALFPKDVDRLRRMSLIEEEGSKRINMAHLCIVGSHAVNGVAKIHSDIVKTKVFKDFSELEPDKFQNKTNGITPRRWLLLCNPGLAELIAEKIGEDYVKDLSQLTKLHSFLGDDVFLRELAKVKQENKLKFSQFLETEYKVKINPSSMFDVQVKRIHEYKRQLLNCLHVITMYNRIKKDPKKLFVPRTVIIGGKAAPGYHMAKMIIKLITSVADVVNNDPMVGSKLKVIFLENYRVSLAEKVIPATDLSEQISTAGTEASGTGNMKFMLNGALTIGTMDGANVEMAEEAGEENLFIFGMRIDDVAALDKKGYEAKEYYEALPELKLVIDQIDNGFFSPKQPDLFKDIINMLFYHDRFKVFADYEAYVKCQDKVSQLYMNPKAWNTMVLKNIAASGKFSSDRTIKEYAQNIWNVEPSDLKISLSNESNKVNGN
Experiment: Glycogen phosphorylase a activity test (reverse direction, release of inorganic phosphate)
Assay type: biochemical
Conditions: 10 µM test substance, in vitro, 40 min at room temperature, absorbance at 820 nm; for inhibition at 10 µM: read-out: % Inhibition bei 10 µM
Method: Glykogenphosphorylase a Aktivitätstest
Der Effekt von Verbindungen auf die Aktivität der aktiven Form der Glykogenphosphorylase (GPa) wurde in der umgekehrten Richtung, durch Verfolgen der Glykogensynthese aus Glukose-1-Phosphat an Hand der Bestimmung der Freisetzung von anorganischem Phosphat, gemessen.
Prüfsubstanzen wurden als 10 mM Lösung in DMSO zubereitet und auf 50 µM mit Pufferlösung T verdünnt. Zu 10 µl dieser Lösung wurden 10 µl 37,5 mM Glukose, gelöst in Pufferlösung T und 5 mg/mL Glykogen, sowie 10 µl einer Lösung von humaner Glykogenphosphorylase a ([…]) und 20 µl Glukose-1-Phosphat, 2,5 mM zugegeben. Der basale Wert der Glykogenphosphorylase a Aktivität in Abwesenheit von Prüfsubstanz wurde durch Zugabe von 10 µl Pufferlösung T (0,1 % DMSO) bestimmt. […] Zur Bestimmung der Hintergrundsabsorption wurde in einem separaten Ansatz die Stop-Lösung unmittelbar nach Zugabe der Glukose-1-Phosphatlösung zugegeben.
Dieser Test wurde mit einer Konzentrationen von 10 µM der Prüfsubstanz durchgeführt, um die jeweilige Hemmung der Glykogenphosphorylase a in vitro durch die Prüfsubstanz zu bestimmen. Tabelle 2: Biologische Aktivität

SMILES	inhibition at 10 µM [%]	% Inhibition bei 10 µM [%]
O=C(NC(=O)c1ccc(Cl)cc1Cl)Nc1ccc(C(=O)O)cc1O [compound 5]	80	–
CCOC(=O)c1ccc(NC(=O)NC(=O)c2c(F)cccc2F)cc1 [Vergleichsbeispiel A, reference compound]	3	–
NC(CO)(CO)CO.O=C(NC(=O)c1cc(F)c(F)cc1Cl)Nc1ccc(C(=O)O)cc1OC(F)(F)F [compound 49, 4-[3-(2-Chlor-4,5-difluor-benzoyl)-ureido]-3-trifluoromethoxy-benzoesäure TRIS-Salz]	–	103
O=C(NC(=O)c1ccccc1Cl)Nc1ccc(C(=O)O)cc1[N+](=O)[O-] [compound 1]	71	–
O=C(NC(=O)c1ccc(Cl)cc1Cl)Nc1ccc(C(=O)O)cc1[N+](=O)[O-] [compound 2]	85	–
